{
  "source": "patent US20250332167A1",
  "about": "“PHARMACEUTICAL USE OF CDK 4/6 INHIBITOR” (priority 2021, published 2025)",
  "key": {"NCI-H441": {"test_system": "NCI-H441", "test": "Proliferation inhibition, non-small cell lung cancer cell line NCI-H441", "format": "cell-based", "details": "Homo sapiens, NCI-H441, 72 h", "method": "(§1) Sixteen non-small cell lung cancer cell lines, including NCI-H1792, NCI-H1703, NCI-H441, SNU-761, NCI-H1975, NCI-H358, NCI-H1838, NCI-H1915, A549, SK-MES-1, NCI-H292, PC-9, NCI-H460, NCI-H23, NCI-H1581, and HLF, were used for the proliferation inhibition assay of the present invention compound. […] The cell detection equipment used was In Cell Analyzer 2200 (GE Healthcare).\n(§2) With 60 μM as the initial concentration, ten points were obtained by serial five-fold dilution.\n(§3) Each kind of cell in logarithmic growth phase was inoculated with 4000 cells/100 μl/well into a black transparent bottom 96-well plate and cultured overnight at 37° C. The next day, the plate was taken out, and 20 μL of the prepared sample dilutions was added to each well. The plate was then subjected to treatment at 37° C. for 72 hours. After the treatment period of 72 hours, the plate was taken out and 50 μL of neutral formaldehyde fixative (formaldehyde: PBS=1:9, 50 μl/well) was added to each well. The plate was then fixed at room temperature for 10-30 minutes. Subsequently, the wells were washed twice with 1× PBS (100 μl/well) and treated with 0.2% Triton™-X100 for 5-10 minutes to permeabilize the cells. […] The inhibitory rates of each compound at different concentration points were calculated by using the following formula, and IC50 values were obtained through curve fitting using GraphPad Prism 6.0 software."}, "NCI-H292": {"test_system": "NCI-H292", "test": "Proliferation inhibition, non-small cell lung cancer cell line NCI-H292", "format": "cell-based", "details": "Homo sapiens, NCI-H292, 72 h", "method": "as §1, §2, §3"}, "NCI-H1975": {"test_system": "NCI-H1975", "test": "Proliferation inhibition, non-small cell lung cancer cell line NCI-H1975", "format": "cell-based", "details": "Homo sapiens, NCI-H1975, 72 h", "method": "as §1, §2, §3"}, "PC-9": {"test_system": "PC-9", "test": "Proliferation inhibition, non-small cell lung cancer cell line PC-9", "format": "cell-based", "details": "Homo sapiens, PC-9, 72 h", "method": "as §1, §2, §3"}, "NCI-H1703": {"test_system": "NCI-H1703", "test": "Proliferation inhibition, non-small cell lung cancer cell line NCI-H1703", "format": "cell-based", "details": "Homo sapiens, NCI-H1703, 72 h", "method": "as §1, §2, §3"}, "NCI-H23": {"test_system": "NCI-H23", "test": "Proliferation inhibition, non-small cell lung cancer cell line NCI-H23", "format": "cell-based", "details": "Homo sapiens, NCI-H23, 72 h", "method": "as §1, §2, §3"}, "NCI-H1581": {"test_system": "NCI-H1581", "test": "Proliferation inhibition, non-small cell lung cancer cell line NCI-H1581", "format": "cell-based", "details": "Homo sapiens, NCI-H1581, 72 h", "method": "as §1, §2, §3"}, "SNU-761": {"test_system": "SNU-761", "test": "Proliferation inhibition, non-small cell lung cancer cell line SNU-761", "format": "cell-based", "details": "Homo sapiens; SNU-761, 72 h", "method": "as §1, §2, §3"}, "NCI-H460": {"test_system": "NCI-H460", "test": "Proliferation inhibition, non-small cell lung cancer cell line NCI-H460", "format": "cell-based", "details": "Homo sapiens, NCI-H460, 72 h", "method": "as §1, §2, §3"}, "NCI-H358": {"test_system": "NCI-H358", "test": "Proliferation inhibition, non-small cell lung cancer cell line NCI-H358", "format": "cell-based", "details": "Homo sapiens, NCI-H358, 72 h", "method": "as §1, §2, §3"}, "[1]": {"test_system": "Human glioblastoma model (BN2289)", "test": "Human glioblastoma xenograft mouse model (BN2289)", "format": "in vivo, BALB/C nude mice", "details": "for Day 21 Tumor Volume / Relative Average Tumor Volume / T/C (relative tumor growth rate) / TGI (relative tumor inhibition rate): day 21", "text": "Human glioblastoma model (BN2289, Crown Bioscience Co., Ltd.) tumor fragments were cut into small pieces with a diameter of 2-3 mm and subcutaneously inoculated into the right side of BALB/C nude mice. Tumor growth was monitored regularly, and when the tumors grew to an average volume of approximately 100-200 mm^3, mice were randomly divided into groups based on the tumor size.\nEach group consisted of 8 mice and received oral gavage administration once daily for a total of 28 days. Regular observations were made on tumor volume and changes in body weight. Efficacy evaluation was conducted based on the relative tumor growth rate (T/C) and the relative tumor inhibition rate (TGI).\nThe formula for calculating tumor volume was: Tumor Volume (mm^3)=½×(a×b^2) (where “a” represents the long diameter and “b” represents the short diameter).\nThe relative tumor growth rate (T/C) is the percentage value of the relative tumor volume or weight between the treatment group and the control group at a certain time point. The calculation formula is as follows: • T/C(%)=TRTV/CRTV×100% (TRTV: Average RTV of the treatment group; CRTV: Average RTV of the Vehicle group; RTV=Vt/V0, where V0 is the tumor volume of the animal at the time of grouping and Vt is the tumor volume of the animal after treatment).\n(T and C are the relative tumor volume (RTV) or weight (TW) of the treatment group and control group at a specific time point, respectively)."}, "[2]": {"details": "10 mg/kg oral gavage once daily"}, "[3]": {"details": "25 mg/kg oral gavage once daily"}, "[4]": {"details": "50 mg/kg oral gavage once daily"}},
  "data": [
    {"smiles": "CC1=Nc2c(F)cc(-c3nc(Nc4ccc(C5CCN(C)CC5)cn4)ncc3F)cc2C12CCCC2.O=C(O)/C=C/C(=O)O", "note": "[Compound A, Fumarate salt of 5-fluoro-4-(7′-fluoro-2′-methylspiro[cyclopentane-1,3′-indol]-5′-yl)-N-(5-(1-methylpiperidin-4-yl)pyridin-2-yl)pyrimidine-2-amine]", "values": [
      {"measurement": "IC50", "setting": "NCI-H441", "value": 7, "unit": "nM"},
      {"measurement": "IC50", "setting": "NCI-H292", "value": 73, "unit": "nM"},
      {"measurement": "IC50", "setting": "NCI-H1975", "value": 10, "unit": "nM"},
      {"measurement": "IC50", "setting": "PC-9", "value": 180, "unit": "nM"},
      {"measurement": "IC50", "setting": "NCI-H1703", "value": 3, "unit": "nM"},
      {"measurement": "IC50", "setting": "NCI-H23", "value": 243, "unit": "nM"},
      {"measurement": "IC50", "setting": "NCI-H1581", "value": 1120, "unit": "nM"},
      {"measurement": "IC50", "setting": "SNU-761", "value": 8, "unit": "nM"},
      {"measurement": "IC50", "setting": "NCI-H460", "value": 235, "unit": "nM"},
      {"measurement": "IC50", "setting": "NCI-H358", "value": 17, "unit": "nM"},
      {"measurement": "Day 21 Tumor Volume", "setting": "[1]; 5 mg/kg oral gavage once daily", "value": "2038.41 ± 177.46", "unit": "mm^3"},
      {"measurement": "Relative Average Tumor Volume", "setting": "[1]; 5 mg/kg oral gavage once daily", "value": 13.80},
      {"measurement": "T/C (relative tumor growth rate)", "setting": "[1]; 5 mg/kg oral gavage once daily", "value": 95.08, "unit": "%"},
      {"measurement": "TGI (relative tumor inhibition rate)", "setting": "[1]; 5 mg/kg oral gavage once daily", "value": 4.92, "unit": "%"},
      {"measurement": "Day 21 Tumor Volume", "setting": "[1]; [2]", "value": "1900.70 ± 134.20", "unit": "mm^3"},
      {"measurement": "Relative Average Tumor Volume", "setting": "[1]; [2]", "value": 12.81},
      {"measurement": "T/C (relative tumor growth rate)", "setting": "[1]; [2]", "value": 88.24, "unit": "%"},
      {"measurement": "TGI (relative tumor inhibition rate)", "setting": "[1]; [2]", "value": 11.76, "unit": "%"},
      {"measurement": "Day 21 Tumor Volume", "setting": "[1]; [3]", "value": "1302.81 ± 119.99", "unit": "mm^3"},
      {"measurement": "Relative Average Tumor Volume", "setting": "[1]; [3]", "value": 8.80},
      {"measurement": "T/C (relative tumor growth rate)", "setting": "[1]; [3]", "value": 60.61, "unit": "%"},
      {"measurement": "TGI (relative tumor inhibition rate)", "setting": "[1]; [3]", "value": 39.39, "unit": "%"},
      {"measurement": "Day 21 Tumor Volume", "setting": "[1]; [4]", "value": "938.13 ± 52.26", "unit": "mm^3"},
      {"measurement": "Relative Average Tumor Volume", "setting": "[1]; [4]", "value": 6.32},
      {"measurement": "T/C (relative tumor growth rate)", "setting": "[1]; [4]", "value": 43.56, "unit": "%"},
      {"measurement": "TGI (relative tumor inhibition rate)", "setting": "[1]; [4]", "value": 56.44, "unit": "%"},
      {"measurement": "Drug toxicity / tolerance (body weight)", "setting": "[1]; 5-50 mg/kg oral gavage once daily, 28 days", "value": "no significant toxic side effects"}
    ]}
  ]
}
